# ChEMBL document CHEMBL5550104, “Discovery of 3-hydroxymethyl-azetidine derivatives as potent polymerase theta inhibitors” (Bioorg Med Chem, 2024)
# Tests used:
# [1] = biological target: T1, DNA polymerase theta (Homo sapiens, UniProt O75417)
# [2] = biological target: T1, DNA polymerase theta; assay: Inhibition of DNA polymerase theta mediated TMEJ repair activity in human HEK293T cells transfected with TMEJ reporter incubated for 24 hrs by Nano-glo luciferase assay; assay type: cell-based
# [3] = tested on: DLD-1; assay: Antiproliferative activity against BRCA2 deficient human DLD-1 cells assessed as inhibition of cell growth incubated for 7 days by Cell-titer glo luminescence assay; assay type: functional, cell-based; conditions: DLD-1, 168 h
# [4] = biological target: T2, Cytochrome P450 1A2 (Homo sapiens, UniProt P05177); assay: Inhibition of CYP1A2 in human liver microsomes using phenacetin as substrate incubated for 10 mins in presence of NADPH by LC-MS/MS analysis; assay type: ADME, Microsome
# T2 sequence (P05177 whole entry): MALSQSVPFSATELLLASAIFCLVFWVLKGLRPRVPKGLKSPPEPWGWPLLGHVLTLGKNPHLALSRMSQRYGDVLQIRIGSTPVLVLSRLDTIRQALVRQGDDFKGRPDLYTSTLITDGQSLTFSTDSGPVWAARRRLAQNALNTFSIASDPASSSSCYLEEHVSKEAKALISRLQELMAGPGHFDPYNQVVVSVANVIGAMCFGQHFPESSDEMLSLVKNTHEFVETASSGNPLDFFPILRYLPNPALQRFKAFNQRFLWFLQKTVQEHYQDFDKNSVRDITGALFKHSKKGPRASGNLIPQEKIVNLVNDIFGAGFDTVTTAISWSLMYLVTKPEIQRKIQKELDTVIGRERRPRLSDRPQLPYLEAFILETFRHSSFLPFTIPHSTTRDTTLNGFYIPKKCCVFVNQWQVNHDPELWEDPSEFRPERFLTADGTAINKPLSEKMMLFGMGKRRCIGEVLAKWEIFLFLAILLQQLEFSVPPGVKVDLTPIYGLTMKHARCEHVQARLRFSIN
# [5] = biological target: Cytochrome P450 2C9 (Homo sapiens, UniProt P11712); assay: Inhibition of CYP2C9 in human liver microsomes using diclofenac as substrate incubated for 10 mins in presence of NADPH by LC-MS/MS analysis; assay type: ADME, Microsome
# [6] = biological target: Cytochrome P450 2C19 (Homo sapiens, UniProt P33261); assay: Inhibition of CYP2C19 in human liver microsomes using S-mephenytoin as substrate incubated for 10 mins in presence of NADPH by LC-MS/MS analysis; assay type: ADME, Microsome
# [7] = biological target: Cytochrome P450 2D6 (Homo sapiens, UniProt P10635); assay: Inhibition of CYP2D6 in human liver microsomes using dextromethorphan as substrate incubated for 10 mins in presence of NADPH by LC-MS/MS analysis; assay type: ADME, Microsome
# [8] = biological target: Cytochrome P450 3A4 (Homo sapiens, UniProt P08684); assay: Inhibition of CYP3A4 in human liver microsomes using midazolam as substrate incubated for 10 mins in presence of NADPH by LC-MS/MS analysis; assay type: ADME, Microsome
# Sequence of Cytochrome P450 3A4 (P08684 whole entry): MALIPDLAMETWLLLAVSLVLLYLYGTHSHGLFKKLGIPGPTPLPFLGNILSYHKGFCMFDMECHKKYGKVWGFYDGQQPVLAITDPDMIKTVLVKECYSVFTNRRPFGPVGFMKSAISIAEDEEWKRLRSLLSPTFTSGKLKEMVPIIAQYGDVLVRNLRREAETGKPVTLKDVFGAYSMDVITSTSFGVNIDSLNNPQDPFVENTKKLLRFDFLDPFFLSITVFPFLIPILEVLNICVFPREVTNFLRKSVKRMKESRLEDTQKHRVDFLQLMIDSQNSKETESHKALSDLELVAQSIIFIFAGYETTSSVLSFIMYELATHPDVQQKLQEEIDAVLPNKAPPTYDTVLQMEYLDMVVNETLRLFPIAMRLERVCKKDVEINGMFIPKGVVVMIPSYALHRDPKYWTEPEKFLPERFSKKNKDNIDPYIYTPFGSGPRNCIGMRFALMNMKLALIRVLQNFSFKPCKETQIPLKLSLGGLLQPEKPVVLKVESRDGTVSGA
# T1 sequence (O75417 whole entry): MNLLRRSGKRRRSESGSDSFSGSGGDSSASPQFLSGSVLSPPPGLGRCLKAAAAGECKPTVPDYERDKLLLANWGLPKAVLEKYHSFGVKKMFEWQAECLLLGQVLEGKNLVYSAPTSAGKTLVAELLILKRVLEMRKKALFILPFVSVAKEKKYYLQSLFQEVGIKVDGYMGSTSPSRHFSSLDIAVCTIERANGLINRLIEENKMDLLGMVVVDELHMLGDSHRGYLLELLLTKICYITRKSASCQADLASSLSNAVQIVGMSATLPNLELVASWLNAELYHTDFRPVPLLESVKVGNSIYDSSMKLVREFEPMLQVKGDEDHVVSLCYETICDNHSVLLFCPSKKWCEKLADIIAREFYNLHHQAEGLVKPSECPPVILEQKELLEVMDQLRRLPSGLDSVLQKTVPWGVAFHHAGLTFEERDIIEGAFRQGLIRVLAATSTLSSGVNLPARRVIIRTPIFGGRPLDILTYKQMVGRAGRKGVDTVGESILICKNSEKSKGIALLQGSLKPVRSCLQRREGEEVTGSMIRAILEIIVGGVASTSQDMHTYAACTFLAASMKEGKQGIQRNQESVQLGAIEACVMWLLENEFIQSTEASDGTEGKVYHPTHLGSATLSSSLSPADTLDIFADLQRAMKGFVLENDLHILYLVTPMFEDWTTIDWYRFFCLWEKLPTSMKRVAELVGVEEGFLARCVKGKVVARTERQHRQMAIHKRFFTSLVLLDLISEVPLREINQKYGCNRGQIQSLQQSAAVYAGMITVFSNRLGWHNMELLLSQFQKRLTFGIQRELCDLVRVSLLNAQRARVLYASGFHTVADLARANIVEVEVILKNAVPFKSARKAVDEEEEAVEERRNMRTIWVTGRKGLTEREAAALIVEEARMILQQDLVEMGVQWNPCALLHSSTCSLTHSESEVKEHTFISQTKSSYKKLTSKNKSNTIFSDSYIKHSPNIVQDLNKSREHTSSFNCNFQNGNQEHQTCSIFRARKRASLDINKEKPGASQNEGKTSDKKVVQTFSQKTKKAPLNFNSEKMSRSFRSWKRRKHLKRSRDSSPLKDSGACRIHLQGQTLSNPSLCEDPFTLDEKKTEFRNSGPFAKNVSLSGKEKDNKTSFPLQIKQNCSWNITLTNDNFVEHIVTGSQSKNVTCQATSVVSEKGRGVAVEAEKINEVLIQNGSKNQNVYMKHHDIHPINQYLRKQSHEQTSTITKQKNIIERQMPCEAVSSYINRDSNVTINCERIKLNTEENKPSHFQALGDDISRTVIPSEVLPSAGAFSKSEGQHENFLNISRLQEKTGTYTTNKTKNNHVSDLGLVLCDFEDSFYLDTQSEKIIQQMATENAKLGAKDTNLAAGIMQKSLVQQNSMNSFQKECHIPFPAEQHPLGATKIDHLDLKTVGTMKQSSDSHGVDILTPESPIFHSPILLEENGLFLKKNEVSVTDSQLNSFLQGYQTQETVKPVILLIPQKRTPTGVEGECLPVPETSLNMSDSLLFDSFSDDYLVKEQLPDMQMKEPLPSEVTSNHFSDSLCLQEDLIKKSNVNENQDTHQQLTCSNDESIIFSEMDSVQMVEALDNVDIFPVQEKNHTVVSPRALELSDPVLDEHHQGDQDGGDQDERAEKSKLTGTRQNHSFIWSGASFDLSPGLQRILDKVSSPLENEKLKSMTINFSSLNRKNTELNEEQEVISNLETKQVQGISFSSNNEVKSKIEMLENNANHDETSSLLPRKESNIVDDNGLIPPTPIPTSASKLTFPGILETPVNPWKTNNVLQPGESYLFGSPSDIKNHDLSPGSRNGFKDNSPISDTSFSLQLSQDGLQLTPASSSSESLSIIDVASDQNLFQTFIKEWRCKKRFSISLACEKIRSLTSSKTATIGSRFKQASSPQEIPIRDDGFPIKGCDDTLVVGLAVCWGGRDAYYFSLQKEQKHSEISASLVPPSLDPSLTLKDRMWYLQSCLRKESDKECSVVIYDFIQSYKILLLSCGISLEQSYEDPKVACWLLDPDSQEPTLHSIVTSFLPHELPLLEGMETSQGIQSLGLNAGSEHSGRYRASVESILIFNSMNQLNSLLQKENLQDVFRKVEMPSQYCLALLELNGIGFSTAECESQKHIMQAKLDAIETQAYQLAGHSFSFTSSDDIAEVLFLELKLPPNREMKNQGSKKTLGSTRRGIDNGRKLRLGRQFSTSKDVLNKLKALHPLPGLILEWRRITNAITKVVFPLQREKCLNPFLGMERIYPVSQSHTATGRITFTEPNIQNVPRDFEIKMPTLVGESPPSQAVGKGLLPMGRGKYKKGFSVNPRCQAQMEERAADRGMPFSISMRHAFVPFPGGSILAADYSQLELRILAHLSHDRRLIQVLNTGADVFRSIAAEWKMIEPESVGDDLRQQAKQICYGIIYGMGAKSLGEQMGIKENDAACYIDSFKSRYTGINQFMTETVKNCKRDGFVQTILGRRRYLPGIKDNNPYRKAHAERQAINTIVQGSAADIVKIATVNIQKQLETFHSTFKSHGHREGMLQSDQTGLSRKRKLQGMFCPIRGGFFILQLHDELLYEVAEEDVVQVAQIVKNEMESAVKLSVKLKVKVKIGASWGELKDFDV
# Sequence of Cytochrome P450 2D6 (P10635 whole entry): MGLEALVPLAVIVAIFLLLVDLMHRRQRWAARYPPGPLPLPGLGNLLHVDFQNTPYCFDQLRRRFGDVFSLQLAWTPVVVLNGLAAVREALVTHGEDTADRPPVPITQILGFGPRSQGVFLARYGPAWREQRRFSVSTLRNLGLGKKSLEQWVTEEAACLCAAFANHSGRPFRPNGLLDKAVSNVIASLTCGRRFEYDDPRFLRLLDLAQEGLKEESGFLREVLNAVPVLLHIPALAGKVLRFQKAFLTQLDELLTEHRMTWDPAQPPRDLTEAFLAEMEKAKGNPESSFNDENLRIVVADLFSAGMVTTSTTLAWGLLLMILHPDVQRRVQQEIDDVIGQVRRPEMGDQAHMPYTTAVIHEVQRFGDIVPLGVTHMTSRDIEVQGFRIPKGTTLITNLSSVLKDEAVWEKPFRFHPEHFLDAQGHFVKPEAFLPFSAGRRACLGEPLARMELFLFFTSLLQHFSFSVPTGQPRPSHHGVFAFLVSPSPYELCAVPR
# Sequence of Cytochrome P450 2C19 (P33261 whole entry): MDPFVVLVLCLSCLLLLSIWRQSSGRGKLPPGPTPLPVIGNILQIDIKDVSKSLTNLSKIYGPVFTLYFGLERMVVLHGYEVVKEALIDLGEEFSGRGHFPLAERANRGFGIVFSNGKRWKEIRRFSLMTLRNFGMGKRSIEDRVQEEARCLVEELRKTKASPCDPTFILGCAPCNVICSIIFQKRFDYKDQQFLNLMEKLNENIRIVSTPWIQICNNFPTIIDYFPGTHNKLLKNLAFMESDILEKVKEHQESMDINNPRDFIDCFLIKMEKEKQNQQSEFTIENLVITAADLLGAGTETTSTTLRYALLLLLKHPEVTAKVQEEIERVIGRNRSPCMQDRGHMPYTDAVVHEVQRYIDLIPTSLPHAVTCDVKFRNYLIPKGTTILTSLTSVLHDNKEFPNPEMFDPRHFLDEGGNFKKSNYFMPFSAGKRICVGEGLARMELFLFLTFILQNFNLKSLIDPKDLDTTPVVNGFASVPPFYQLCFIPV
# Sequence of Cytochrome P450 2C9 (P11712 whole entry): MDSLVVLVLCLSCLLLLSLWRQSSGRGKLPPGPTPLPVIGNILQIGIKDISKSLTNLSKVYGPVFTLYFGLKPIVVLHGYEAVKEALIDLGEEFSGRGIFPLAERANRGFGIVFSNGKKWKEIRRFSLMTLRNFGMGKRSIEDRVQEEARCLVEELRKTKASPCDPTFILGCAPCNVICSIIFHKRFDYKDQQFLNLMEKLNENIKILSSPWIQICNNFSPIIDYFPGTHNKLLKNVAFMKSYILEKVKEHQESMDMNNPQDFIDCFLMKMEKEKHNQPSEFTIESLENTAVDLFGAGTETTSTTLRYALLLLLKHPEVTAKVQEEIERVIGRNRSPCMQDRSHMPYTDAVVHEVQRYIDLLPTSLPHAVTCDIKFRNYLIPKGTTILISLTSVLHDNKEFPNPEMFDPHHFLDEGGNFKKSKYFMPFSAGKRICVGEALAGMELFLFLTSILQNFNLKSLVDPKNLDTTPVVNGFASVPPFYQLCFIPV
structure (smiles),measurement,setting,value
Cc1cc(C(F)(F)F)cc(N2CC[C@H]2C(=O)N(C)c2ccc(F)c(Cl)c2)n1,IC50,[1],221 nM
Cc1cc(C(F)(F)F)cc(N2C(=O)C[C@H]2C(=O)N(C)c2ccc(F)c(Cl)c2)n1,IC50,[1],41.3 nM
Cc1cc(C(F)(F)F)c(C#N)c(N2CC[C@@H](O)[C@H]2C(=O)N(C)c2ccc(F)c(Cl)c2)n1,IC50,[2],160 nM
same,IC50,[3],5500 nM
same,IC50,[1],7.9 nM
Cc1cc(C(F)(F)F)c(C#N)c(N2C[C@@H](CCl)[C@H]2C(=O)N(C)c2ccc(F)c(Cl)c2)n1,IC50,[1],923 nM
Cc1cc(C(F)(F)F)c(C#N)c(N2C(=O)C[C@H]2C(=O)N(C)c2ccc(F)c(Cl)c2)n1,IC50,[1],858 nM
Cc1cc(C(F)(F)F)cc(N2CCOC[C@H]2C(=O)N(C)c2ccc(F)c(Cl)c2)n1,IC50,[1],3890 nM
[2H]C([2H])([2H])N(C(=O)[C@@H]1[C@H](CO)CN1c1nc(C)cc(C(F)(F)F)c1C#N)c1ccc(F)c(Cl)c1,IC50,[4],> 50000 nM
same,IC50,[5],3100 nM
same,IC50,[6],770 nM
same,IC50,[7],17300 nM
same,IC50,[8],14600 nM
Cc1cc(C(F)(F)F)c(C#N)c(N2CC[C@H]2C(=O)N(C)c2ccc(F)c(Cl)c2)n1,IC50,[1],104 nM
